Among the data in patent US20250059188A1, “ARYLSULPHONAMIDE COMPOUNDS” (Anaxis Pharma Pty Ltd, priority 2021, published 2025) are Kd values, retold here.

What all share (conditions): equilibrium dissociation constant
One test deals with human RIPK3 (Homo sapiens (Human), UniProt Q9Y572). The test can be described thus: KINOMEscan binding assay, human RIPK3. On the procedure:
(§1) Binding affinity of the test compounds for human MLKL (full length), mouse MLKL (full length), human RIPK1 and human RIPK3 was determined using the KINOMEscan™ technology developed by DiscoverX (USA; http://www.discoverx.com). The assay was conducted according to manufacturer instructions.
(§2) Kinase assays. For most assays, kinase-tagged T7 phage strains were grown in parallel in 24-well blocks in an E. coli host derived from the BL21 strain. E. coli were grown to log-phase and infected with T7 phage from a frozen stock (multiplicity of infection=0.4) and incubated with shaking at 32° C. until lysis (90-150 minutes). The lysates were centrifuged (6,000×g) and filtered (0.2 μm) to remove cell debris. The remaining kinases were produced in HEK-293 cells and subsequently tagged with DNA for qPCR detection. […] The liganded beads were blocked with excess biotin and washed with blocking buffer (SeaBlock (Pierce), 1% BSA, 0.05% Tween 20, 1 mM DTT) to remove unbound ligand and to reduce non-specific phage binding. […] All reactions were performed in polypropylene 384-well plates in a final volume of 20 μL. […] The kinase concentration in the eluates was measured by qPCR.
(§3) An 11-point 3-fold serial dilution of each test compound was prepared in 100% DMSO at 100× final test concentration and subsequently diluted to 1× in the assay (final DMSO concentration=1%). Most Kos were determined using a compound top concentration=30,000 nM.
(§4) KD for each test compound was calculated with a standard dose-response curve using the Hill equation (equation (1)): […]
(§5) The Hill Slope was set to −1.
(§6) Curves were fitted using a non-linear least square fit with the Levenberg-Marquardt algorithm.

A further test concerns the target human MLKL (full length) (Homo sapiens (Human), UniProt Q8NB16). Put plainly: KINOMEscan binding assay, human MLKL (full length). On the procedure:
as §1, §2, §3, §4, §5, §6

A further test has as its target human RIPK1 (Homo sapiens (Human), UniProt Q13546). The test can be described thus: KINOMEscan binding assay, human RIPK1. On the procedure:
as §1, §2, §3, §4, §5, §6

Structures are written as SMILES. Where only a bound is given, the exact number is not on record here.

Chain of human MLKL (full length) (Q8NB16 whole entry): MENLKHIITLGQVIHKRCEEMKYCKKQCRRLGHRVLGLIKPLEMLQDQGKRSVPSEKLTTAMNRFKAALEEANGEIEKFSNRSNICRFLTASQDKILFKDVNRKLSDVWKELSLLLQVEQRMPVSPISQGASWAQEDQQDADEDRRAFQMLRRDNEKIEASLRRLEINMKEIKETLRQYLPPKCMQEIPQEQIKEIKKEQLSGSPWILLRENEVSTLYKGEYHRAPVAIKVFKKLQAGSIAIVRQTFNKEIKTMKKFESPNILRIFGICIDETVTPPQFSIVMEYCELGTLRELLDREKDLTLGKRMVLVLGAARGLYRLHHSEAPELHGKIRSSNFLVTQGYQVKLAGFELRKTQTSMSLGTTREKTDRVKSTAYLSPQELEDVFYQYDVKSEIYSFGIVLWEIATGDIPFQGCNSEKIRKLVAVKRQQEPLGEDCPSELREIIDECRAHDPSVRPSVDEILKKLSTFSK
Chain of human RIPK1 (Q13546 whole entry): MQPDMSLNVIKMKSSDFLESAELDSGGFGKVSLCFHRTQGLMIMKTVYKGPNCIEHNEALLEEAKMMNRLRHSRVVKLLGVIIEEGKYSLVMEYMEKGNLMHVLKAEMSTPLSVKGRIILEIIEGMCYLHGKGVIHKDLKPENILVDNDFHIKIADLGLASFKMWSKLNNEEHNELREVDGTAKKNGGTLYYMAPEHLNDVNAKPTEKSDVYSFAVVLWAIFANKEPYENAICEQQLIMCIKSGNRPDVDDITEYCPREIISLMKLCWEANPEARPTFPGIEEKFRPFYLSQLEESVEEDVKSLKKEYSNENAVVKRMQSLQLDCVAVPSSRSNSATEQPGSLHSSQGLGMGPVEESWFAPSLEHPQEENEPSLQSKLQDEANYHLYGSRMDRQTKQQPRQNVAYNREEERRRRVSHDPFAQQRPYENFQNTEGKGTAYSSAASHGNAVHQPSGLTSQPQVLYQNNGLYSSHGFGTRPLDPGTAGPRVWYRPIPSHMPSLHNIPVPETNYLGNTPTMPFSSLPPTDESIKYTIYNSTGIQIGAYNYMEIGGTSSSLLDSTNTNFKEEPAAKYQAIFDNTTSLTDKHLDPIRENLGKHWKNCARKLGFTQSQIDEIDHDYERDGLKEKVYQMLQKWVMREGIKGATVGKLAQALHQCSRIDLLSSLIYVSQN
Chain of human RIPK3 (Q9Y572 whole entry): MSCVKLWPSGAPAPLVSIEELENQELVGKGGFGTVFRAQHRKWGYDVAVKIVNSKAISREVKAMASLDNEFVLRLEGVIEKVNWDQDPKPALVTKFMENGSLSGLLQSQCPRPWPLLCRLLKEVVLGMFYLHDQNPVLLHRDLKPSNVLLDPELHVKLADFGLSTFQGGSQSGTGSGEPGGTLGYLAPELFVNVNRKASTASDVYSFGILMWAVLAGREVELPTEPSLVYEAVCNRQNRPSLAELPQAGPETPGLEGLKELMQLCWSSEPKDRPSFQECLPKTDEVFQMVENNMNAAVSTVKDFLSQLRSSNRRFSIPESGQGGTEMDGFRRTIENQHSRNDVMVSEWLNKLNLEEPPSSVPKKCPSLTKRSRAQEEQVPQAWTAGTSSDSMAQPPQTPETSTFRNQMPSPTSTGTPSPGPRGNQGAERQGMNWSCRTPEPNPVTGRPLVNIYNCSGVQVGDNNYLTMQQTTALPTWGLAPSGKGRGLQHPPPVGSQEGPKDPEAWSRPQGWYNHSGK

In general, Kd refers to a measure of binding affinity in units of concentration. High values mean a looser complex, low ones a tighter complex. On to `CCS(=O)(=O)Nc1ccc(-c2nn(C)c3c(NC(C)=O)cnc(N)c23)cc1OCc1ccc(F)cc1` [Compound 2, N-(4-amino-3-(4-(ethylsulfonamido)-3-((4-fluorobenzyl)oxy)phenyl)-1-methyl-1H-pyrazolo[4,3-c]pyridin-7-yl)acetamide], for which the figures for the dissociation constant Kd at human RIPK3, at human MLKL (full length) and at human RIPK1 were greater than 10 µM, 0.001 to 0.1 µM and greater than 10 µM, respectively.
`CCS(=O)(=O)Nc1ccc(-c2coc3c(-c4cnn(CCO)c4)cnc(N)c23)cc1OCc1ccc(F)cc1` [Compound 4, N-(4-(4-amino-7-(1-(2-hydroxyethyl)-1H-pyrazol-4-yl)furo[3,2-c]pyridin-3-yl)-2-((4-fluorobenzyl)oxy)phenyl)ethanesulfonamide]: the values for the Kd on human RIPK3, at human MLKL (full length) and at human RIPK1 were greater than 10 µM, 0.001 to 0.1 µM and greater than 10 µM, respectively.
Turning to `Nc1ncc(-c2cnn(CCO)c2)c2occ(-c3ccc(NS(=O)(=O)C(F)F)c(OCc4ccc(F)cc4)c3)c12` [Compound 6, N-(4-(4-amino-7-(1-(2-hydroxyethyl)-1H-pyrazol-4-yl)furo[3,2-c]pyridin-3-yl)-2-((4-fluorobenzyl)oxy)phenyl)-1,1-difluoromethanesulfonamide], the Kd was greater than 10 µM at human RIPK3, less than 0.001 µM at human MLKL (full length) and greater than 10 µM at human RIPK1.
For the compound `Cn1nc(-c2ccc(NS(=O)(=O)C(F)F)c(OCc3ccc(F)cc3)c2)c2c(N)nccc21` [Compound 10, N-(4-{4-amino-1-methyl-1H-pyrazolo[4,3-c]pyridin-3-yl}-2-[(4-fluorophenyl)methoxy]phenyl)-1,1-difluoromethanesulfonamide], the figures for the Kd on human RIPK3, on human MLKL (full length) and at human RIPK1 were greater than 10 µM, 0.001 to 0.1 µM and greater than 10 µM, respectively.
With `C[C@H](Oc1cc(-c2nn(C)c3ccnc(N)c23)ccc1NS(=O)(=O)C(F)F)c1ccc(F)cc1` [Compound 17, N-(4-{4-amino-1-methyl-1Hpyrazolo[4,3-c]pyridin-3-yl}-2-[(1S)-1-(4-fluorophenyl)ethoxy]phenyl)-1,1-difluoromethanesulfonamide], the equilibrium dissociation constant (Kd) at human RIPK3 was greater than 10 µM; at human MLKL (full length) it was less than 0.001 µM; at human RIPK1, greater than 10 µM.
Consider `C[C@H](Oc1cc(-c2cnn3ccnc(N)c23)ccc1NS(=O)(=O)C(F)F)c1ccc(F)cc1` [Compound 22, (S)—N-(4-(4-aminopyrazolo[1,5-a]pyrazin-3-yl)-2-(1-(4-fluorophenyl)ethoxy)phenyl)-1,1-difluoromethanesulfonamide], for which the dissociation constant Kd is greater than 10 µM on human RIPK3, less than 0.001 µM at human MLKL (full length) and greater than 10 µM at human RIPK1.
For `Cc1noc(C)c1-c1cnc(N)c2c(-c3ccc(NS(=O)(=O)C(F)F)c(O[C@@H](C)c4ccc(F)cc4)c3)nn(C)c12` [Compound 33, (S)-N-(4-(4-amino-7-(3,5-dimethylisoxazol-4-yl)-1-methyl-1H-pyrazolo[4,3-c]pyridin-3-yl)-2-(1-(4-fluorophenyl)ethoxy)phenyl)-1,1-difluoromethanesulfonamide], the Kd was greater than 10 µM at human RIPK3, 0.001 to 0.1 µM on human MLKL (full length) and greater than 10 µM at human RIPK1.
Consider `C[C@H](Oc1cc(-c2nn(C)c3c(Cc4ccccc4)cnc(N)c23)ccc1NS(=O)(=O)C(F)F)c1ccc(F)cc1` [Compound 34, (S)-N-(4-(4-amino-7-benzyl-1-methyl-1H-pyrazolo[4,3-c]pyridin-3-yl)-2-(1-(4-fluorophenyl)ethoxy)phenyl)-1,1-difluoromethanesulfonamide], for which the Kd was greater than 10 µM at human RIPK3, 0.001 to 0.1 µM at human MLKL (full length) and greater than 10 µM on human RIPK1.
With `C[C@H](Oc1cc(-c2nn(C)c3c(-c4ccnc(N(C)C)c4)cnc(N)c23)ccc1NS(=O)(=O)C(F)F)c1ccc(F)cc1` [Compound 49, (S)-N-(4-(4-amino-7-(2-(dimethylamino)pyridin-4-yl)-1-methyl-1H-pyrazolo[4,3-c]pyridin-3-yl)-2-(1-(4-fluorophenyl)ethoxy)phenyl)-1,1-difluoromethanesulfonamide], the Kd at human RIPK3 is greater than 10 µM; on human MLKL (full length), 0.001 to 0.1 µM; on human RIPK1 it was greater than 10 µM.
In the case of `C[C@H](Oc1cc(-c2nn(C)c3c(C4=CCCNC4)cnc(N)c23)ccc1NS(=O)(=O)C(F)F)c1ccc(F)cc1` [Compound 54, (S)—N-(4-(4-amino-1-methyl-7-(1,2,5,6-tetrahydropyridin-3-yl)-1H-pyrazolo[4,3-c]pyridin-3-yl)-2-(1-(4-fluorophenyl)ethoxy)phenyl)-1,1-difluoromethanesulfonamide], the figures for the Kd at human RIPK3, on human MLKL (full length) and at human RIPK1 were greater than 10 µM, 0.001 to 0.1 µM and greater than 10 µM, respectively.
As to `CCS(=O)(=O)Nc1ccc(-c2ncn3ccnc(N)c23)cc1OCc1ccc(F)cc1` [Compound 63, N-(4-(8-Aminoimidazo[1,5-a]pyrazin-1-yl)-2-((4-fluorophenyl)methoxy)phenyl) ethane-1-sulfonamide], the results for the Kd at human RIPK3, at human MLKL (full length) and at human RIPK1 were greater than 10 µM, 0.1 to 10 µM and greater than 10 µM, respectively.
Take `CCS(=O)(=O)Nc1ccc(-c2cnn3ccnc(N)c23)cc1OCc1ccc(F)cc1` [Compound 64, N-(4-(4-Aminopyrazolo[1,5-a]pyrazin-3-yl)-2-((4-fluorophenyl)methoxy)phenyl)ethane-1-sulfonamide]: the Kd at human RIPK3 was greater than 10 µM; at human MLKL (full length), 0.1 to 10 µM; on human RIPK1, greater than 10 µM.
In the case of `Nc1n[nH]c2ccnc(-c3ccc(NS(=O)(=O)CC(F)(F)F)c(OCc4ccc(F)cc4)c3)c12` [Compound 65, N-(4-(3-amino-1H-pyrazolo[4,3-c]pyridin-4-yl)-2-((4-fluorophenyl)methoxy)phenyl)-2,2,2-trifluoroethane-1-sulfonamide], the Kd on human RIPK3 was greater than 10 µM; at human MLKL (full length) it was 0.001 to 0.1 µM; on human RIPK1, greater than 10 µM.
Regarding `Nc1n[nH]c2nccc(-c3ccc(NS(=O)(=O)CC(F)(F)F)c(OCc4ccc(F)cc4)c3)c12` [Compound 67, N-(4-(3-Amino-1H-pyrazolo[3,4-b]pyridin-4-yl)-2-((4-fluorophenyl)methoxy)phenyl)-2,2,2-trifluoroethane-1-sulfonamide], the Kd at human RIPK3 is greater than 10 µM; at human MLKL (full length) it was less than 0.001 µM; at human RIPK1, greater than 10 µM.
Consider `Nc1n[nH]c2ccnc(-c3ccc(NS(=O)(=O)C(F)F)c(OCc4ccc(F)cc4)c3)c12` [Compound 68, N-(4-(3-amino-1H-pyrazolo[4,3-c]pyridin-4-yl)-2-((4-fluorophenyl)methoxy)phenyl)-1,1-difluoromethanesulfonamide], for which the figures for the equilibrium dissociation constant (Kd) on human RIPK3, on human MLKL (full length) and at human RIPK1 were greater than 10 µM, 0.1 to 10 µM and greater than 10 µM, respectively.
As to `C[C@H](Oc1cc(-c2nn(C)c3c(-c4cnn5c4CNCC5)cnc(N)c23)ccc1NS(=O)(=O)C(F)F)c1ccc(F)cc1` [Compound 90, (S)-N-(4-(4-amino-1-methyl-7-(4,5,6,7-tetrahydropyrazolo[1,5-a]pyrazin-3-yl)-1H-pyrazolo[4,3-c]pyridin-3-yl)-2-(1-(4-fluorophenyl)ethoxy)phenyl)-1,1-difluoromethanesulfonamide], the dissociation constant (Kd) on human RIPK3 is greater than 10 µM; at human MLKL (full length), 0.001 to 0.1 µM; at human RIPK1, greater than 10 µM.
As to `C[C@H](Oc1cc(-c2nn(C)c3c(-c4cnn(C5CCOCC5)c4)cnc(N)c23)ccc1NS(=O)(=O)Cc1ccccc1)c1ccc(F)cc1` [Compound 127, (S)-N-(4-(4-amino-1-methyl-7-(1-(tetrahydro-2H-pyran-4-yl)-1H-pyrazol-4-yl)-1H-pyrazolo[4,3-c]pyridin-3-yl)-2-(1-(4-fluorophenyl)ethoxy)phenyl)-1-phenylmethanesulfonamide], the Kd at human MLKL (full length) is 0.001 to 0.1 µM.
